One experiment deals with T1, Bcl-xL (Homo sapiens, UniProt Q07817).
T1 construct: endogenous in cells; host or cells: MOLT-4 (ATCC CRL-1582)
Kind of experiment: Protein Degradation Assay in MOLT-4 Cells (Western blot). The class given is cell-based. The note with it: for BCL-xL degradation in MOLT-4 cells: 50 nM compound, 16 hours, FIGS. 7 and 8. As to the method: MOLT-4 (ATCC, CRL-1582) (FIGS. 7,8) were incubated with vehicle or 50 nM concentrations of the indicated compounds for 16 hours. For proteasome inhibition, MOLT-4 cells (250,000 cells/well) were pretreated with 1 μM of MG132 for 1 hour before the addition of 100 nM of the indicated compounds for 16 h. After treatment, the cells were harvested in RIPA lysis buffer supplemented with 1% Phosphatase Inhibitor and Protease Inhibitor Cocktail. An equal amount of protein (10 μg/lane) from each cell extract was resolved on a 4-12% Bis-Tris gel. Proteins were transferred using iBlot 2 Transfer Stacks. The membranes were blocked with 5% nonfat milk in TBS-T buffer (50 mM Tris-HCL, pH 7.6; 150 mM NaCl; and 0.05% Tween) and probed with primary antibodies (1:1000 dilution) overnight at 4° C. After three washes with TBS-T (10 min/wash), the membranes were incubated with an appropriate peroxidase-conjugated secondary antibody (Cell Signaling Technology, USA) for 1 hour at rt. After three washes with TBS-T, the proteins of interest were detected with ECL Western Blotting Detection Reagents and captured with an Azure imaging system. The band intensities were determined using ImageJ software and normalized to loading control β-actin or GAPDH. The primary antibodies Bcl-xL (#2762), Bcl-2 (#2872s), and GAPDH (#5174) were purchased from Cell Signaling Technology.
On the technique in general: In western blotting, separated proteins are transferred to a membrane and probed.

For another experiment, the system named is MOLT-4 cells. Kind of experiment: MOLT-4 Cell Proliferation Assay (CellTiter-Glo). The class given is cell-based. The note with it: Homo sapiens, 72 h, read-out: MOLT-4 CTG IC50. An outline of the steps:
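MOLT-4 cells at 50,000/well in serum-supplemented medium received a 10-point 1:3 dilution series (top 10 μM final, 0.1% DMSO) in duplicate for 72 h at 37 °C. Viability was read as CellTiter-Glo luminescence, and IC50 came from nonlinear regression.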

pIC50: −log10 of the molar value.

T1 sequence (Q07817 whole entry): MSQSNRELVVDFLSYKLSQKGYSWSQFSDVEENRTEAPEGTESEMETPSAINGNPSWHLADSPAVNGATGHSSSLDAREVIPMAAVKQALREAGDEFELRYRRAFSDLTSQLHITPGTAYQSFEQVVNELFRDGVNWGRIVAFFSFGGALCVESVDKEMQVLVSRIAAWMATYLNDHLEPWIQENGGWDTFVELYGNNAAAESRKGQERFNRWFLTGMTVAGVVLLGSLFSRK

As to `Cc1ncsc1-c1ccc([C@H](C)NC(=O)[C@@H]2C[C@@H](O)CN2C(=O)[C@@H](NC(=O)CCCCCC(=O)N2CCN(CC[C@H](CSc3ccccc3)Nc3ccc(S(=O)(=O)NC(=O)c4ccc(N5CCN(CC6=C(C78CC(C)(C7)C8)CC(C)(C)CC6)CC5)cc4)cc3S(=O)(=O)C(F)(F)F)CC2)C(C)(C)C)cc1` [Example 9, (2S,4R)-1-((S)-2-(7-(4-((R)-3-((4-(N-(4-(4-((4,4-dimethyl-2-(3-methylbicyclo[1.1.1]pentan-1-yl)cyclohex-1-en-1-yl)methyl)piperazin-1-yl)benzoyl)sulfamoyl)-2-((trifluoromethyl)sulfonyl)phenyl)amino)-4-(phenylthio)butyl)piperazin-1-yl)-7-oxoheptanamido)-3,3-dimethylbutanoyl)-4-hydroxy-N—((S)-1-(4-(4-methylthiazol-5-yl)phenyl)ethyl)pyrrolidine-2-carboxamide], on Bcl-xL, the “BCL-xL degradation in MOLT-4 cells” value is on record as “induce BCL-xL degradation”. Besides, the pIC50 in the experiment with MOLT-4 cells is 6.82 to 7.30.

Turning to `Cc1ncsc1-c1ccc([C@H](C)NC(=O)[C@@H]2C[C@@H](O)CN2C(=O)[C@@H](NC(=O)CCCCCCCC(=O)N2CCN(CC[C@H](CSc3ccccc3)Nc3ccc(S(=O)(=O)NC(=O)c4ccc(N5CCN(CC6=C(C78CC(C)(C7)C8)CC(C)(C)CC6)CC5)cc4)cc3S(=O)(=O)C(F)(F)F)CC2)C(C)(C)C)cc1` [Example 24, (2S,4R)-1-((S)-2-(9-(4-((R)-3-((4-(N-(4-(4-((4,4-dimethyl-2-(3-methylbicyclo[1.1.1]pentan-1-yl)cyclohex-1-en-1-yl)methyl)piperazin-1-yl)benzoyl)sulfamoyl)-2-((trifluoromethyl)sulfonyl)phenyl)amino)-4-(phenylthio)butyl)piperazin-1-yl)-9-oxononanamido)-3,3-dimethylbutanoyl)-4-hydroxy-N—((S)-1-(4-(4-methylthiazol-5-yl)phenyl)ethyl)pyrrolidine-2-carboxamide], the “BCL-xL degradation in MOLT-4 cells” value on Bcl-xL is “induce BCL-xL degradation”. In addition, in the experiment on MOLT-4 cells, the negative logarithm of the IC50 (pIC50) was 6.82 to 7.30.

For the compound `Cc1ncsc1-c1ccc([C@H](C)NC(=O)[C@@H]2C[C@@H](O)CN2C(=O)[C@@H](NC(=O)CCCCCC(=O)N2CCN(CC[C@H](CSc3ccccc3)Nc3ccc(S(=O)(=O)NC(=O)c4ccc(N5CCN(CC6=C(C78CC(C(F)F)(C7)C8)CC(C)(C)CC6)CC5)cc4)cc3S(=O)(=O)C(F)(F)F)CC2)C(C)(C)C)cc1` [Example 6, (2S,4R)-1-((S)-2-(7-(4-((R)-3-((4-(N-(4-(4-((2-(3-(difluoromethyl)bicyclo[1.1.1]pentan-1-yl)-4,4-dimethylcyclohex-1-en-1-yl)methyl)piperazin-1-yl)benzoyl)sulfamoyl)-2-((trifluoromethyl)sulfonyl)phenyl)amino)-4-(phenylthio)butyl)piperazin-1-yl)-7-oxoheptanamido)-3,3-dimethylbutanoyl)-4-hydroxy-N—((S)-1-(4-(4-methylthiazol-5-yl)phenyl)ethyl)pyrrolidine-2-carboxamide], at Bcl-xL, the “BCL-xL degradation in MOLT-4 cells” value is reported as “induce BCL-xL degradation”. The “BCL-xL degradation in MOLT-4 cells, dose dependence” value on Bcl-xL (FIG. 9) is recorded as “can induce BCL-xL degradation in MOLT-4 cells in a dose dependent manner”. Further, the “Bcl-xL degradation with proteasome inhibitor MG132” value at Bcl-xL (MOLT-4 cells pretreated with 1 μM MG132 for 1 hour, then 100 nM compound for 16 h, FIG. 10) was “can be inhibited by proteasome inhibitor MG132”. Further, the pIC50 in the experiment with MOLT-4 cells was 6.82 to 7.30.

Usually pIC50 stands for the IC50 on a negative log10 scale, so that one unit is a factor of ten.

The values are drawn from US20230167105A1, “BCL-2 PROTEIN INHIBITORS” (Recurium IP Holdings, LLC, priority 2020, published 2023).
